These results are taken from ChEMBL document CHEMBL3991601, “The target landscape of clinical kinase drugs” (Science, 2017).

Activity calls are given as the source filed them.

The target of assay [1] is T1, Serine/threonine-protein kinase STK11 (Homo sapiens, UniProt Q15831).
T1 sequence (Q15831 whole entry): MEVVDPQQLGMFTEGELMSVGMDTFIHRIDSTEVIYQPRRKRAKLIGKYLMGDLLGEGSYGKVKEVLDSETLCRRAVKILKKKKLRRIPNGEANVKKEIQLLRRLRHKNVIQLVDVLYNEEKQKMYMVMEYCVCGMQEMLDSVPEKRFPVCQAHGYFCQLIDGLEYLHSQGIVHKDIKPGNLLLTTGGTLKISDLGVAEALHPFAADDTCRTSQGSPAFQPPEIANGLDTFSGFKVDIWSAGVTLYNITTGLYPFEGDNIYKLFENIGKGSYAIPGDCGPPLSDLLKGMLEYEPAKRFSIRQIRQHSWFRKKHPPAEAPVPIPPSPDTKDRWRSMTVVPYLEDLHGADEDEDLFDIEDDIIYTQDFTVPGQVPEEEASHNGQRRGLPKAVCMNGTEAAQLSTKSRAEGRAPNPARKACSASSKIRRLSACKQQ

For assay [2], the target named is T2, ATP-dependent 6-phosphofructokinase, platelet type (Homo sapiens, UniProt Q01813).
T2 sequence (Q01813 whole entry): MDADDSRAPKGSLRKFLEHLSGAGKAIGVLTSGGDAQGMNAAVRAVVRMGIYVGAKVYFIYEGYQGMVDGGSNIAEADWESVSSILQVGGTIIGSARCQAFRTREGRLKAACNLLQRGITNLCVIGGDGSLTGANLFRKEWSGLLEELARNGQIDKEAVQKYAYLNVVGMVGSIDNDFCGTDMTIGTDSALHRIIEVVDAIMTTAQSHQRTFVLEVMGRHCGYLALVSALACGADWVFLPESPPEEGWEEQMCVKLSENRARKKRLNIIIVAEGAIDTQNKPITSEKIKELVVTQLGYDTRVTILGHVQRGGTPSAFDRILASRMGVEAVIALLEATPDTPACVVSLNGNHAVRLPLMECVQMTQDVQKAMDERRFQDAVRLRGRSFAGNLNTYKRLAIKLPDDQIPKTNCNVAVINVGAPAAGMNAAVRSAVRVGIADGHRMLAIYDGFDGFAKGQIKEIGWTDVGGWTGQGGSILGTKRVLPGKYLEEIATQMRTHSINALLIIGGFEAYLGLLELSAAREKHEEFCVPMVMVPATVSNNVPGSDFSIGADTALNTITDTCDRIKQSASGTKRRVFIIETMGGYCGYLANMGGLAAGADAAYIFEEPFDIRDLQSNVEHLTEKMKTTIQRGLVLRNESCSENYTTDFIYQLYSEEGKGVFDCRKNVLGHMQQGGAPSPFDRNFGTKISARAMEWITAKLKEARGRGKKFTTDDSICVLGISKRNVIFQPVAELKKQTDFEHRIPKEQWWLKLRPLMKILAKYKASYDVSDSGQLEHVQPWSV

Assay [3] addresses Dual specificity protein kinase CLK1 (Homo sapiens, UniProt P49759).
Assay [4] has as its target Cyclin-dependent kinase 7 (Homo sapiens, UniProt P50613).
Assay [5] concerns the target T3, Serine/threonine-protein kinase Nek1 (Homo sapiens, UniProt Q96PY6).
T3 sequence (Q96PY6 whole entry): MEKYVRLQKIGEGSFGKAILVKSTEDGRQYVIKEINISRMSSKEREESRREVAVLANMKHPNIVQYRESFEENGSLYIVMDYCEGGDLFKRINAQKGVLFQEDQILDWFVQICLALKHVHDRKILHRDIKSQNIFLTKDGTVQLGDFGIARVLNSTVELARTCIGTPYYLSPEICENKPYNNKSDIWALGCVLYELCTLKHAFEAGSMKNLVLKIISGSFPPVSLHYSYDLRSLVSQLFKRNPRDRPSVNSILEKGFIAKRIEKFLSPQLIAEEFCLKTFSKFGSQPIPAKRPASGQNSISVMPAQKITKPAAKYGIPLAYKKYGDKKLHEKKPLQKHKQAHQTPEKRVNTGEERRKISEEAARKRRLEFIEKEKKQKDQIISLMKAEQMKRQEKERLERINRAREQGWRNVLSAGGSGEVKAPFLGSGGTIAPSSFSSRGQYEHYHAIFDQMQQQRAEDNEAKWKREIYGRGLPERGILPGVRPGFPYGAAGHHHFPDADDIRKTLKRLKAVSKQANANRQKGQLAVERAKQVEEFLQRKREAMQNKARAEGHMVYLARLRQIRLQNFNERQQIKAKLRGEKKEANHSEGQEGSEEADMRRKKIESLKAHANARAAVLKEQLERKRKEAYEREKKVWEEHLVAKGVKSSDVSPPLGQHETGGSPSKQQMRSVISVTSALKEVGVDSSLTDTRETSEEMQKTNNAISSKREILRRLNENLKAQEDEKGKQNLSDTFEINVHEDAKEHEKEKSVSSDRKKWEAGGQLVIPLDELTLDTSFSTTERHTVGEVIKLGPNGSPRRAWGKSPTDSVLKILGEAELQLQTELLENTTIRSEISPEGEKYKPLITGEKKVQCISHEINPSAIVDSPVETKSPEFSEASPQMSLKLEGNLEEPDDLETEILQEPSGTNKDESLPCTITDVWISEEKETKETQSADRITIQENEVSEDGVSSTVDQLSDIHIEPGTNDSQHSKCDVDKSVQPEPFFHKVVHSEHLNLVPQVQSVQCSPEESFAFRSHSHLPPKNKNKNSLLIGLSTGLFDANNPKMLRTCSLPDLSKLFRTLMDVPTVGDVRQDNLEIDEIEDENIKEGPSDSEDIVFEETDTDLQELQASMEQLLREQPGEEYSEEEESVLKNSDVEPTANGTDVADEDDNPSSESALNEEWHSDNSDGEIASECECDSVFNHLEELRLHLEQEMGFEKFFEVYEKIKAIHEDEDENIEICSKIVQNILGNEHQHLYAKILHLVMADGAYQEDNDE

Assay [6] concerns the target Cyclin-dependent kinase 5 (Homo sapiens, UniProt Q00535).
Also: in the data inactive means no Kd found up to 30 µM.

Chain of Cyclin-dependent kinase 5 (Q00535 whole entry): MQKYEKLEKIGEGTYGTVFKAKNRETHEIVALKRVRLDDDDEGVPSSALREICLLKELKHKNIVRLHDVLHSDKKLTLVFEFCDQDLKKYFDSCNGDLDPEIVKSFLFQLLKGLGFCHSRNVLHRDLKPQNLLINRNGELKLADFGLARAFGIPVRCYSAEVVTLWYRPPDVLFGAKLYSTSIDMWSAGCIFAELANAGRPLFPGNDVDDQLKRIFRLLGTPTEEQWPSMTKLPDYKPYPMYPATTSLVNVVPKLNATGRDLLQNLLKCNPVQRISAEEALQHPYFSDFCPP
Chain of Dual specificity protein kinase CLK1 (P49759 whole entry): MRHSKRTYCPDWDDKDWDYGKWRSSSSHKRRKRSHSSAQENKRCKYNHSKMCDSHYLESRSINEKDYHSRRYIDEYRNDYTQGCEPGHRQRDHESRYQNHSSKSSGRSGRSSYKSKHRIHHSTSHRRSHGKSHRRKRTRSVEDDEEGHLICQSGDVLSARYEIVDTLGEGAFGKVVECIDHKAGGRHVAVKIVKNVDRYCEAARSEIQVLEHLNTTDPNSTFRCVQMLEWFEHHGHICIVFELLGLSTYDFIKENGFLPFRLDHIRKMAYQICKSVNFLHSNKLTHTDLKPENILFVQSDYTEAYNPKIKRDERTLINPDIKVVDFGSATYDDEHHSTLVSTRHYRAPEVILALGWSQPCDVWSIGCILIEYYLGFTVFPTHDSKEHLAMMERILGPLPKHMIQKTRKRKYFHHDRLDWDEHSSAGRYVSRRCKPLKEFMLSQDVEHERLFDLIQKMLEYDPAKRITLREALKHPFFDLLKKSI
Chain of Cyclin-dependent kinase 7 (P50613 whole entry): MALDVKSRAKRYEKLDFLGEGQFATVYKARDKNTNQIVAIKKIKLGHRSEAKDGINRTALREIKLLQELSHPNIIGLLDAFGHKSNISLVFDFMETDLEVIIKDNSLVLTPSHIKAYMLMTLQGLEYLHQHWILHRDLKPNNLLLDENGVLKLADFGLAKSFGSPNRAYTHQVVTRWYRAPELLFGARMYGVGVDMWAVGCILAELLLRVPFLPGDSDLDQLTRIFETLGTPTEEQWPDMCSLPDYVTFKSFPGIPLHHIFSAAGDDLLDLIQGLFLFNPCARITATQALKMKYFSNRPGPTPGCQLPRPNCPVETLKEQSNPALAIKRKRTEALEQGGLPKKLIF

As a reminder, the Kd is the equilibrium constant for the complex coming apart. Take `COc1cc(CCc2cc(NC(=O)c3ccc(N4C[C@@H](C)N[C@@H](C)C4)cc3)n[nH]2)cc(OC)c1` [AZD-4547]: the Kd in assay [1], in assay [2], in assay [3], in assay [4], in assay [5] and in assay [6] was > 30 µM (inactive) each time.

Turning to `CN1CC[C@@H](c2c(O)cc(O)c3c(=O)cc(-c4ccccc4Cl)oc23)[C@@H]1CO`, the Kd in assay [1], in assay [2], in assay [3], in assay [4], in assay [5] and in assay [6] was > 30 µM (inactive) throughout.

For the compound `CCN1CCN(Cc2ccc(-c3cc4c(N[C@H](C)c5ccccc5)ncnc4[nH]3)cc2)CC1` [AEE-788], the Kd in assay [1], in assay [2], in assay [3], in assay [4], in assay [5] and in assay [6] was > 30 µM (inactive) throughout.

On to `C[C@@H]1CN(Cc2ccc(F)cc2)[C@@H](C)CN1C(=O)c1cc2c(C(=O)C(=O)N(C)C)cn(C)c2cc1Cl` [TALMAPIMOD], for which the Kd in assay [1], in assay [2], in assay [3], in assay [4], in assay [5] and in assay [6] was > 30 µM (inactive) in each case.

Turning to `O=C(Nc1ccc(-c2ccnc(Nc3ccc(N4CCOCC4)cc3)n2)cc1)C1CCCN1` (stereo unspecified) [XL-019], the Kd in assay [1], in assay [2], in assay [3], in assay [4], in assay [5] and in assay [6] was > 30 µM (inactive) in each case.

For `CN1CCC(COc2cnc(-c3cccc(Cn4nc(-c5cccc(C#N)c5)ccc4=O)c3)nc2)CC1` [TEPOTINIB], the Kd in assay [1], in assay [2], in assay [3], in assay [4], in assay [5] and in assay [6] was > 30 µM (inactive) in each case.

`COc1cc2nccc(Oc3ccc(NC(=O)NC4CC4)c(Cl)c3)c2cc1C(N)=O` [LENVATINIB]: the Kd in assay [1], in assay [2], in assay [3], in assay [4], in assay [5] and in assay [6] was > 30 µM (inactive) in each case.

As to `Cn1cc(-c2ccc(F)c(C(F)(F)F)c2)nc1C1CCN(c2ncnc3[nH]ncc23)CC1` [LY-2584702], the Kd in assay [1], in assay [2], in assay [3], in assay [4], in assay [5] and in assay [6] was > 30 µM (inactive) each time.

For `Cc1cc2c(F)c(Oc3ncnn4cc(OC[C@@H](C)OC(=O)[C@H](C)N)c(C)c34)ccc2[nH]1` [BRIVANIB ALANINATE], the Kd in assay [1], in assay [2], in assay [3], in assay [4], in assay [5] and in assay [6] was > 30 µM (inactive) each time.

Consider `CNC(=O)c1ccc(C)c(-n2c(C)cc(OCc3ccc(F)cc3F)c(Br)c2=O)c1` [PH-797804], for which the Kd in assay [1], in assay [2], in assay [3], in assay [4], in assay [5] and in assay [6] was > 30 µM (inactive) in each case.

On to `CNC(=O)c1cc(Oc2ccc(NC(=O)Nc3ccc(Cl)c(C(F)(F)F)c3)c(F)c2)ccn1` [REGORAFENIB], for which the Kd in assay [1] was > 30 µM (inactive); in assay [2], > 30 µM (inactive); in assay [3] it was 2.11 µM (active); in assay [4], > 30 µM (inactive); in assay [5], > 30 µM (inactive); in assay [6], > 30 µM (inactive).

In the case of `COC(=O)N[C@@H](C)CNc1nccc(-c2cn(C(C)C)nc2-c2cc(Cl)cc(NS(C)(=O)=O)c2F)n1` [ENCORAFENIB], the Kd in assay [1], in assay [2], in assay [3], in assay [4], in assay [5] and in assay [6] was > 30 µM (inactive) throughout.

Take `Cc1c(F)cc(C(=O)NC2CC2)cc1-c1ccc(C(=O)NCC(C)(C)C)cn1` [LOSMAPIMOD]: the Kd in assay [1], in assay [2], in assay [3], in assay [4], in assay [5] and in assay [6] was > 30 µM (inactive) in each case.

Take `Cc1cc(-c2cc(O)ccc2Cl)cc2nnc(Nc3ccc(OCCN4CCCC4)cc3)nc12`: the Kd in assay [1], in assay [2], in assay [3], in assay [4], in assay [5] and in assay [6] was > 30 µM (inactive) throughout.

For the compound `C=CC(=O)N1CCC(Oc2cc3c(Nc4ccc(Cl)c(Cl)c4F)ncnc3cc2OC)CC1` [POZIOTINIB], the Kd in assay [1], in assay [2], in assay [3], in assay [4], in assay [5] and in assay [6] was > 30 µM (inactive) each time.

In the case of `O=C1NC(=O)/C(=C/c2ccc3nccc(-c4ccncc4)c3c2)S1` [GSK-1059615], the Kd in assay [1] was > 30 µM (inactive); in assay [2] it was > 30 µM (inactive); in assay [3], 0.025 µM (active); in assay [4] it was > 30 µM (inactive); in assay [5] it was > 30 µM (inactive); in assay [6] it was > 30 µM (inactive).
